Data published in the NIST ThermoML archive (doi:10.1021/acs.jced.9b00311).
Numbers after ± are expanded uncertainties.

Test: xn = mol fraction of the nth substance listed
Conditions: Liquid; for speed of sound: Frequency=3 MHz, Pulse-echo method; for mass density: Vibrating tube method

CCCCCCCCCCCC [dodecane] + O=C=O
Conditions | mass density, 303.15 K [kg/m3] | mass density, 313.15 K [kg/m3] | speed of sound, 303.15 K [m/s] | speed of sound, 313.15 K [m/s]
10000 kPa, x2 = 0 | 748.5 ± 0.8 | 741.6 ± 0.8 | 1318.5 ± 1.8 | 1281.7 ± 1.8
10000 kPa, x2 = 0.2032 | – | – | 1245.6 ± 1.7 | 1209.7 ± 1.8
10000 kPa, x2 = 0.205 | 756.3 ± 0.7 | 748.8 ± 0.7 | – | –
10000 kPa, x2 = 0.3989 | – | – | 1152.2 ± 1.3 | 1114.6 ± 1.8
10000 kPa, x2 = 0.4 | 767.4 ± 0.6 | 758.7 ± 0.6 | – | –
10000 kPa, x2 = 0.6007 | – | – | 1011.6 ± 1.5 | 969.6 ± 1.9
10000 kPa, x2 = 0.6008 | 784.3 ± 0.6 | 773.3 ± 0.6 | – | –
10000 kPa, x2 = 0.7497 | 802.5 ± 0.6 | 786.6 ± 0.6 | – | –
10000 kPa, x2 = 0.7498 | – | – | 845.5 ± 1.5 | 793.2 ± 1.9
10000 kPa, x2 = 0.8528 | – | – | 680.5 ± 1.6 | 630 ± 1.6
10000 kPa, x2 = 0.853 | 815.6 ± 0.5 | 790.9 ± 0.8 | – | –
10000 kPa, x2 = 0.9348 | 817.8 ± 0.6 | 771.4 ± 0.9 | – | –
10000 kPa, x2 = 0.9771 | 801 ± 1.1 | 721.2 ± 1.7 | – | –
10000 kPa, x2 = 0.9877 | 790.6 ± 1.4 | 689.4 ± 2.4 | – | –
20000 kPa, x2 = 0 | 755.1 ± 0.9 | 748.5 ± 0.9 | 1372.4 ± 1.8 | 1337.9 ± 1.8
20000 kPa, x2 = 0.2032 | – | – | 1304.1 ± 1.7 | 1269.6 ± 1.8
20000 kPa, x2 = 0.205 | 763.6 ± 0.8 | 756.5 ± 0.8 | – | –
20000 kPa, x2 = 0.3989 | – | – | 1214.9 ± 1.5 | 1180.3 ± 1.7
20000 kPa, x2 = 0.4 | 776.3 ± 0.7 | 768.1 ± 0.7 | – | –
20000 kPa, x2 = 0.6007 | – | – | 1084.4 ± 1.4 | 1046.4 ± 1.7
20000 kPa, x2 = 0.6008 | 796.3 ± 0.7 | 786.1 ± 0.6 | – | –
20000 kPa, x2 = 0.7497 | 820.5 ± 0.6 | 806.5 ± 0.6 | – | –
20000 kPa, x2 = 0.7498 | – | – | 937 ± 1.4 | 893.3 ± 1.7
20000 kPa, x2 = 0.8528 | – | – | 800.1 ± 1.5 | 751.2 ± 1.7
20000 kPa, x2 = 0.853 | 844.1 ± 0.6 | 824.1 ± 0.5 | – | –
20000 kPa, x2 = 0.9348 | 868.5 ± 0.5 | 838.9 ± 0.6 | – | –
20000 kPa, x2 = 0.9771 | 883.1 ± 0.6 | 842 ± 0.7 | – | –
20000 kPa, x2 = 0.9877 | 887.1 ± 0.6 | 841.4 ± 0.8 | – | –
30000 kPa, x2 = 0 | 761.3 ± 1 | 754.8 ± 0.9 | 1421.4 ± 1.8 | 1389.6 ± 1.8
30000 kPa, x2 = 0.2032 | – | – | 1356.4 ± 1.8 | 1322.9 ± 1.7
30000 kPa, x2 = 0.205 | 770.5 ± 0.9 | 763.6 ± 0.8 | – | –
30000 kPa, x2 = 0.3989 | – | – | 1272 ± 1.6 | 1238.8 ± 1.7
30000 kPa, x2 = 0.4 | 784.3 ± 0.8 | 776.4 ± 0.7 | – | –
30000 kPa, x2 = 0.6007 | – | – | 1147.4 ± 1.4 | 1112.9 ± 1.6
30000 kPa, x2 = 0.6008 | 806.8 ± 0.7 | 797.2 ± 0.7 | – | –
30000 kPa, x2 = 0.7497 | 835.2 ± 0.6 | 822.5 ± 0.6 | – | –
30000 kPa, x2 = 0.7498 | – | – | 1010.4 ± 1.4 | 971.4 ± 1.6
30000 kPa, x2 = 0.8528 | – | – | 885.8 ± 1.5 | 843.1 ± 1.5
30000 kPa, x2 = 0.853 | 865.6 ± 0.6 | 847.6 ± 0.6 | – | –
30000 kPa, x2 = 0.9348 | 902.4 ± 0.6 | 877.6 ± 0.5 | – | –
30000 kPa, x2 = 0.9771 | 929.5 ± 0.6 | 897.3 ± 0.6 | – | –
30000 kPa, x2 = 0.9877 | 937.7 ± 0.7 | 902.7 ± 0.6 | – | –
40000 kPa, x2 = 0 | 766.9 ± 1 | 760.8 ± 1 | 1468.5 ± 1.9 | 1436.8 ± 1.8
40000 kPa, x2 = 0.2032 | – | – | 1404.4 ± 1.7 | 1373.3 ± 1.7
40000 kPa, x2 = 0.205 | 776.8 ± 0.9 | 770.3 ± 0.9 | – | –
40000 kPa, x2 = 0.3989 | – | – | 1323 ± 1.6 | 1291 ± 1.7
40000 kPa, x2 = 0.4 | 791.6 ± 0.8 | 784.2 ± 0.8 | – | –
40000 kPa, x2 = 0.6007 | – | – | 1204.4 ± 1.5 | 1170.9 ± 1.7
40000 kPa, x2 = 0.6008 | 816 ± 0.7 | 807.2 ± 0.7 | – | –
40000 kPa, x2 = 0.7497 | 847.6 ± 0.6 | 836.1 ± 0.6 | – | –
40000 kPa, x2 = 0.7498 | – | – | 1073.3 ± 1.4 | 1037.1 ± 1.6
40000 kPa, x2 = 0.8528 | – | – | 955.4 ± 1.4 | 917.2 ± 1.5
40000 kPa, x2 = 0.853 | 883.1 ± 0.7 | 866.6 ± 0.6 | – | –
40000 kPa, x2 = 0.9348 | 928.1 ± 0.6 | 906.5 ± 0.6 | – | –
40000 kPa, x2 = 0.9771 | 963.1 ± 0.6 | 935.9 ± 0.6 | – | –
40000 kPa, x2 = 0.9877 | 973.9 ± 0.7 | 944.5 ± 0.7 | – | –
50000 kPa, x2 = 0 | 772 ± 1 | 766.3 ± 1.1 | 1512.3 ± 1.9 | 1481.5 ± 1.9
50000 kPa, x2 = 0.2032 | – | – | 1449.9 ± 1.8 | 1419.2 ± 1.8
50000 kPa, x2 = 0.205 | 782.5 ± 1 | 776.4 ± 1 | – | –
50000 kPa, x2 = 0.3989 | – | – | 1370.3 ± 1.6 | 1339.9 ± 1.7
50000 kPa, x2 = 0.4 | 798.2 ± 0.9 | 791.2 ± 0.9 | – | –
50000 kPa, x2 = 0.6007 | – | – | 1256 ± 1.5 | 1224.3 ± 1.7
50000 kPa, x2 = 0.6008 | 824.4 ± 0.8 | 816.1 ± 0.8 | – | –
50000 kPa, x2 = 0.7497 | 858.7 ± 0.6 | 848 ± 0.6 | – | –
50000 kPa, x2 = 0.7498 | – | – | 1128.9 ± 1.4 | 1095.2 ± 1.6
50000 kPa, x2 = 0.8528 | – | – | 1015.3 ± 1.4 | 979.7 ± 1.4
50000 kPa, x2 = 0.853 | 898.1 ± 0.7 | 882.5 ± 0.7 | – | –
50000 kPa, x2 = 0.9348 | 950.3 ± 0.6 | 929.7 ± 0.6 | – | –
50000 kPa, x2 = 0.9771 | 990.1 ± 0.7 | 965.6 ± 0.6 | – | –
50000 kPa, x2 = 0.9877 | 1002.9 ± 0.8 | 976.7 ± 0.7 | – | –
60000 kPa, x2 = 0 | 776.8 ± 1.1 | 771.5 ± 1.1 | 1553.7 ± 1.9 | 1524.2 ± 1.9
60000 kPa, x2 = 0.2032 | – | – | 1492.5 ± 1.8 | 1462.4 ± 1.8
60000 kPa, x2 = 0.205 | 787.9 ± 1 | 782.1 ± 1 | – | –
60000 kPa, x2 = 0.3989 | – | – | 1414.9 ± 1.6 | 1385.2 ± 1.7
60000 kPa, x2 = 0.4 | 804.4 ± 0.9 | 797.6 ± 0.9 | – | –
60000 kPa, x2 = 0.6007 | – | – | 1303.2 ± 1.5 | 1272.9 ± 1.7
60000 kPa, x2 = 0.6008 | 832.1 ± 0.8 | 824.2 ± 0.8 | – | –
60000 kPa, x2 = 0.7497 | 868.7 ± 0.7 | 858.7 ± 0.7 | – | –
60000 kPa, x2 = 0.7498 | – | – | 1179.5 ± 1.4 | 1147 ± 1.5
60000 kPa, x2 = 0.8528 | – | – | 1068.3 ± 1.4 | 1034.9 ± 1.4
60000 kPa, x2 = 0.853 | 911.4 ± 0.8 | 896.4 ± 0.7 | – | –
60000 kPa, x2 = 0.9348 | 967.4 ± 0.7 | 949.4 ± 0.6 | – | –
60000 kPa, x2 = 0.9771 | 1012.8 ± 0.7 | 990.3 ± 0.7 | – | –
60000 kPa, x2 = 0.9877 | 1027.1 ± 0.8 | 1003.1 ± 0.8 | – | –
70000 kPa, x2 = 0 | 781.4 ± 1.1 | 776.4 ± 1.1 | 1593.3 ± 2 | 1564.6 ± 1.9
70000 kPa, x2 = 0.2032 | – | – | 1532.6 ± 1.8 | 1503.9 ± 1.8
70000 kPa, x2 = 0.205 | 793.2 ± 1 | 787.4 ± 1 | – | –
70000 kPa, x2 = 0.3989 | – | – | 1456.7 ± 1.7 | 1427.5 ± 1.8
70000 kPa, x2 = 0.4 | 810.2 ± 0.9 | 803.6 ± 0.9 | – | –
70000 kPa, x2 = 0.6007 | – | – | 1346.4 ± 1.5 | 1317.9 ± 1.7
70000 kPa, x2 = 0.6008 | 839.3 ± 0.8 | 831.6 ± 0.8 | – | –
70000 kPa, x2 = 0.7497 | 878 ± 0.8 | 868.2 ± 0.7 | – | –
70000 kPa, x2 = 0.7498 | – | – | 1225.4 ± 1.4 | 1195.2 ± 1.6
70000 kPa, x2 = 0.8528 | – | – | 1116.7 ± 1.5 | 1084.8 ± 1.4
70000 kPa, x2 = 0.853 | 923.3 ± 0.8 | 908.7 ± 0.8 | – | –
70000 kPa, x2 = 0.9348 | 983.5 ± 0.7 | 966.6 ± 0.7 | – | –
70000 kPa, x2 = 0.9771 | 1032.6 ± 0.8 | 1011.6 ± 0.7 | – | –
70000 kPa, x2 = 0.9877 | 1048.1 ± 0.8 | 1025.8 ± 0.8 | – | –
